Values quoted from earlier work, collected in patent US20210009750A1, “3D PRINTING COMPOSITION FOR BIOMATERIALS” (TISSIUM SA, priority 2018, published 2021).

System: mammalian cell types
Conditions: broad range of mammalian cell types and species

## CC(C)(O)C(=O)c1ccc(OCCO)cc1 [Irgacure 2959, 2-hydroxy-1-[4-(hydroxyethoxy)phenyl]-2-methyl-1-propanone]
  cytotoxicity (cell death): minimal cytotoxicity
